Reference: ChEMBL document CHEMBL3046161, “Synthesis of potential antitubercular and antimicrobial s-triazine-based scaffolds via Suzuki cross-coupling reaction” (2013)
Values after ≈ are worked out from the molar mass of the structure shown.

Key:
Format in all cases: functional
[1] = test system: Mycobacterium tuberculosis; assay: Antimycobacterial activity against Mycobacterium tuberculosis H37Rv assessed as growth inhibition at MIC measured within 10 days by BACTEC MGIT method
[2] = test system: Mycobacterium tuberculosis; assay: Antimycobacterial activity against Mycobacterium tuberculosis H37Rv assessed as growth inhibition measured within 10 days by BACTEC MGIT method; settings: 240 h
Escherichia coli [3] = assay: Antibacterial activity against Escherichia coli MTCC 739 assessed as growth inhibition after 24 hr by agar streak dilution method; settings: MTCC 739, 24 h
Klebsiella pneumoniae [4] = assay: Antibacterial activity against Klebsiella pneumoniae MTCC 109 assessed as growth inhibition after 24 hr by agar streak dilution method; settings: MTCC 109, 24 h
Staphylococcus aureus [5] = assay: Antibacterial activity against Staphylococcus aureus MTCC 96 assessed as growth inhibition at 3.12 to 50 ug/mL after 24 hr by agar disk diffusion method
Aspergillus clavatus [6] = assay: Antifungal activity against Aspergillus clavatus MTCC 1323 assessed as growth inhibition after 48 hr by agar streak dilution method; settings: MTCC 1323, 48 h
Shigella flexneri [7] = assay: Antibacterial activity against Shigella flexneri MTCC 1457 assessed as growth inhibition at 3.12 to 50 ug/mL after 24 hr by agar disk diffusion method
Aspergillus niger [8] = assay: Antifungal activity against Aspergillus niger MTCC 282 assessed as growth inhibition after 48 hr by agar streak dilution method; settings: MTCC 282, 48 h
Aspergillus fumigatus [9] = assay: Antifungal activity against Aspergillus fumigatus MTCC 343 assessed as growth inhibition at 3.12 to 50 ug/mL after 24 hr by agar disk diffusion method
Pseudomonas aeruginosa [10] = assay: Antibacterial activity against Pseudomonas aeruginosa MTCC 741 assessed as growth inhibition at 3.12 to 50 ug/mL after 24 hr by agar disk diffusion method
[11] = test system: Mycobacterium tuberculosis; assay: Antimycobacterial activity against Mycobacterium tuberculosis H37Rv assessed as growth inhibition at MIC after 12 to 28 days by Lowenstein and Jensen agar dilution method
Aspergillus fumigatus [12] = assay: Antifungal activity against Aspergillus fumigatus MTCC 343 assessed as growth inhibition after 48 hr by agar streak dilution method; settings: MTCC 343, 48 h
Candida albicans [13] = assay: Antifungal activity against Candida albicans MTCC 183 assessed as growth inhibition after 48 hr by agar streak dilution method; settings: MTCC 183, 48 h
Proteus vulgaris [14] = assay: Antibacterial activity against Proteus vulgaris MTCC 1771 assessed as growth inhibition at 3.12 to 50 ug/mL after 24 hr by agar disk diffusion method
Pseudomonas aeruginosa [15] = assay: Antibacterial activity against Pseudomonas aeruginosa MTCC 741 assessed as growth inhibition after 24 hr by agar streak dilution method; settings: MTCC 741, 24 h
Bacillus cereus [16] = assay: Antibacterial activity against Bacillus cereus MTCC 430 assessed as growth inhibition after 24 hr by agar streak dilution method; settings: MTCC 430, 24 h
Salmonella typhi [17] = assay: Antibacterial activity against Salmonella enterica subsp. enterica serovar Typhi MTCC 733 assessed as growth inhibition after 24 hr by agar streak dilution method; settings: MTCC 733, 24 h
Salmonella typhi [18] = assay: Antibacterial activity against Salmonella enterica subsp. enterica serovar Typhi MTCC 733 assessed as growth inhibition at 3.12 to 50 ug/mL after 24 hr by agar disk diffusion method
Candida albicans [19] = assay: Antifungal activity against Candida albicans MTCC 183 assessed as growth inhibition at 3.12 to 50 ug/mL after 24 hr by agar disk diffusion method
[20] = test system: Mycobacterium tuberculosis; assay: Antimycobacterial activity against Mycobacterium tuberculosis H37Rv assessed as growth inhibition after 12 to 28 days by Lowenstein and Jensen agar dilution method
Proteus vulgaris [21] = assay: Antibacterial activity against Proteus vulgaris MTCC 1771 assessed as growth inhibition after 24 hr by agar streak dilution method; settings: MTCC 1771, 24 h
Bacillus cereus [22] = assay: Antibacterial activity against Bacillus cereus MTCC 430 assessed as growth inhibition at 3.12 to 50 ug/mL after 24 hr by agar disk diffusion method
Escherichia coli [23] = assay: Antibacterial activity against Escherichia coli MTCC 739 assessed as growth inhibition at 3.12 to 50 ug/mL after 24 hr by agar disk diffusion method
Shigella flexneri [24] = assay: Antibacterial activity against Shigella flexneri MTCC 1457 assessed as growth inhibition after 24 hr by agar streak dilution method; settings: MTCC 1457, 24 h
Aspergillus niger [25] = assay: Antifungal activity against Aspergillus niger MTCC 282 assessed as growth inhibition at 3.12 to 50 ug/mL after 24 hr by agar disk diffusion method
Staphylococcus aureus [26] = assay: Antibacterial activity against Staphylococcus aureus MTCC 96 assessed as growth inhibition after 24 hr by agar streak dilution method; settings: MTCC 96, 24 h
Klebsiella pneumoniae [27] = assay: Antibacterial activity against Klebsiella pneumoniae MTCC 109 assessed as growth inhibition at 3.12 to 50 ug/mL after 24 hr by agar disk diffusion method
Aspergillus clavatus [28] = assay: Antifungal activity against Aspergillus clavatus MTCC 1323 assessed as growth inhibition at 3.12 to 50 ug/mL after 24 hr by agar disk diffusion method

## NNC(=O)c1ccncc1 [ISONIAZID]
[1]
  growth inhibition (GI): 99%
[2]
  MIC: 0.2 µg/mL (≈ 1.46 µM)

## CC1CC(C)CN(c2nc(-c3ccc(NCC(=O)Nc4nc5ccc(F)cc5s4)cc3)nc(N3CC(C)CC(C)C3)n2)C1 (stereo unspecified)
Escherichia coli [3]
  MIC: 25 µg/mL (≈ 41.5 µM)
Klebsiella pneumoniae [4]
  MIC: 25 µg/mL (≈ 41.5 µM)
Staphylococcus aureus [5]
  inhibition zone (IZ): 25 mm
Aspergillus clavatus [6]
  MIC: 50 µg/mL (≈ 82.9 µM)
Shigella flexneri [7]
  inhibition zone (IZ): 26 mm
Aspergillus niger [8]
  MIC: 12.5 µg/mL (≈ 20.7 µM)
Aspergillus fumigatus [9]
  inhibition zone (IZ): 25 mm
Pseudomonas aeruginosa [10]
  inhibition zone (IZ): 25 mm
[11]
  growth inhibition (GI): 99%
Aspergillus fumigatus [12]
  MIC: 25 µg/mL (≈ 41.5 µM)
[1]
  growth inhibition (GI): 99%
Candida albicans [13]
  MIC: 50 µg/mL (≈ 82.9 µM)
Proteus vulgaris [14]
  inhibition zone (IZ): 25 mm
Pseudomonas aeruginosa [15]
  MIC: 25 µg/mL (≈ 41.5 µM)
Bacillus cereus [16]
  MIC: 3.12 µg/mL (≈ 5.18 µM)
[2]
  MIC: 6.25 µg/mL (≈ 10.4 µM)
Salmonella typhi [17]
  MIC: 12.5 µg/mL (≈ 20.7 µM)
Salmonella typhi [18]
  inhibition zone (IZ): 23 mm
Candida albicans [19]
  inhibition zone (IZ): 23 mm
[20]
  MIC: 3.12 µg/mL (≈ 5.18 µM)
Proteus vulgaris [21]
  MIC: 25 µg/mL (≈ 41.5 µM)
Bacillus cereus [22]
  inhibition zone (IZ): 28 mm
Escherichia coli [23]
  inhibition zone (IZ): 20 mm
Shigella flexneri [24]
  MIC: 6.25 µg/mL (≈ 10.4 µM)
Aspergillus niger [25]
  inhibition zone (IZ): 22 mm
Staphylococcus aureus [26]
  MIC: 3.12 µg/mL (≈ 5.18 µM)
Klebsiella pneumoniae [27]
  inhibition zone (IZ): 25 mm
Aspergillus clavatus [28]
  inhibition zone (IZ): 25 mm

## CO[C@H]1/C=C/O[C@@]2(C)Oc3c(C)c(O)c4c(O)c(c(/C=N/N5CCN(C)CC5)c(O)c4c3C2=O)NC(=O)/C(C)=C\C=C\[C@H](C)[C@H](O)[C@@H](C)[C@@H](O)[C@@H](C)[C@H](OC(C)=O)[C@@H]1C [RIFAMPIN]
[1]
  growth inhibition (GI): 99%
[2]
  MIC: 0.25 µg/mL (≈ 0.304 µM)

## CC1CC(C)CN(c2nc(-c3ccc(NCC(=O)Nc4nc5ccc([N+](=O)[O-])cc5s4)cc3)nc(N3CC(C)CC(C)C3)n2)C1 (stereo unspecified)
Escherichia coli [3]
  MIC: 50 µg/mL (≈ 79.4 µM)
Klebsiella pneumoniae [4]
  MIC: 50 µg/mL (≈ 79.4 µM)
Staphylococcus aureus [5]
  inhibition zone (IZ): 22 mm
Aspergillus clavatus [6]
  MIC: 25 µg/mL (≈ 39.7 µM)
Shigella flexneri [7]
  inhibition zone (IZ): 21 mm
Aspergillus niger [8]
  MIC: 12.5 µg/mL (≈ 19.8 µM)
Aspergillus fumigatus [9]
  inhibition zone (IZ): 22 mm
Pseudomonas aeruginosa [10]
  inhibition zone (IZ): 18 mm
[11]
  growth inhibition (GI): 98%
Aspergillus fumigatus [12]
  MIC: 50 µg/mL (≈ 79.4 µM)
Candida albicans [13]
  MIC: 50 µg/mL (≈ 79.4 µM)
Proteus vulgaris [14]
  inhibition zone (IZ): 19 mm
Pseudomonas aeruginosa [15]
  MIC: 50 µg/mL (≈ 79.4 µM)
Bacillus cereus [16]
  MIC: 12.5 µg/mL (≈ 19.8 µM)
[2]
  MIC: > 6.25 µg/mL
Salmonella typhi [17]
  MIC: 50 µg/mL (≈ 79.4 µM)
Salmonella typhi [18]
  inhibition zone (IZ): 19 mm
Candida albicans [19]
  inhibition zone (IZ): 16 mm
[20]
  MIC: 50 µg/mL (≈ 79.4 µM)
Proteus vulgaris [21]
  MIC: 50 µg/mL (≈ 79.4 µM)
Bacillus cereus [22]
  inhibition zone (IZ): 26 mm
Escherichia coli [23]
  inhibition zone (IZ): 18 mm
Shigella flexneri [24]
  MIC: 50 µg/mL (≈ 79.4 µM)
Aspergillus niger [25]
  inhibition zone (IZ): 23 mm
Staphylococcus aureus [26]
  MIC: 12.5 µg/mL (≈ 19.8 µM)
Klebsiella pneumoniae [27]
  inhibition zone (IZ): 18 mm
Aspergillus clavatus [28]
  inhibition zone (IZ): 28 mm

## CC[C@@H](CO)NCCN[C@@H](CC)CO [ETHAMBUTOL]
[1]
  growth inhibition (GI): 99%
[2]
  MIC: 3.12 µg/mL (≈ 15.3 µM)
